Key:
[1] = target: T1, BTK enzyme (hBTK, full-length recombinant) (Homo sapiens (Human), UniProt Q06187); assay: Btk enzyme activity assay, Method A: IMAP-FP; type: biochemical; conditions: 5 μM ATP, 60 minute compound & enzyme incubation
Excerpt: Inhibition of kinase activity can be measured using the Immobilized Metal Assay for Phosphochemicals (IMAP) assay. IMAP is a homogeneous fluorescence polarization (FP) assay based on affinity capture of phosphorylated peptide substrates. IMAP uses fluorescein-labeled peptide substrates that, upon phosphorylation by a protein kinase, bind to so-called IMAP nanoparticles, which are derivatized with trivalent metal complexes. Binding causes a change in the rate of the molecular motion of the peptide, and results in an increase in the FP value observed for the fluorescein label attached to the substrate peptide (Gaudet et al. A homogeneous fluorescence polarization assay adaptable for a range of protein serine/threonine and tyrosine kinases. J. Biomol. Screen (2003) 8, 164-175).
BTK enzymatic activity was determined in an IMAP-FP assay (Immobilized Metal ion Affinity-based fluorescence Polarization; Molecular Devices). […] Plates were read on Packard microplate reader after 60 minutes binding equilibration using Fluorescence Polarization protocol. Specifically, fluorescence at 535 nm is measured using emission filters oriented both parallel and perpendicular to the polarized excitation filter. This allows detection of changes in Fluorescence Polarization due to binding of the phosphorylated substrate peptide to the beads. […]

[2] = target: T1, BTK enzyme (hBTK, full-length recombinant); assay: Btk enzyme activity assay, Method B: LANCE TR-FRET; type: biochemical; conditions: 25 μM ATP, 60 minute compound & enzyme incubation
Protocol: Also BTK enzymatic activity was determined with the LANCE (Lanthanide Chelate Excite) TR-FRET (Time-resolved fluorescence resonance energy transfer) assay. […] The final reaction in each well of 10 μL consists of 100 pM hBTK, 2 μM biotin-A5-peptide, and 25 μM ATP. Phosphorylation reactions were allowed to proceed for 120 minutes. […] After 60 minutes incubation with detection reagents, reaction plates were read on a PerkinElmer EnVision plate reader using standard TR-FRET protocol. Briefly, excitation of donor molecules (Eu-chelate:anti-phospho-antibody) with a laser light source at 337 nm produces energy that can be transferred to Dylight-650 acceptor molecules if this donor:acceptor pair is within close proximity. Fluorescence intensity at both 665 nm (acceptor) and 615 nm (donor) are measured and a TR-FRET ratio calculated for each well (acceptor intensity/donor intensity). IC50 values were determined by 4 parameter robust fit of TR-FRET ratio values vs. (Log10) compound concentrations. BTK enzymatic activity was determined with the LANCE (Lanthanide Chelate Excite) TR-FRET (Time-resolved fluorescence resonance energy transfer) assay. […] The final reaction in each well of 10 μL consists of 50 pM hBTK, 2 μM biotin-A5-peptide, and 25 μM ATP. Phosphorylation reactions were allowed to proceed for 120 minutes. […] After 60 minutes incubation with detection reagents, reaction plates were read on a PerkinElmer EnVision plate reader using standard TR-FRET protocol. Briefly, excitation of donor molecules (Eu-chelate:anti-phospho-antibody) with a laser light source at 337 nm produces energy that can be transferred to Dylight-650 acceptor molecules if this donor:acceptor pair is within close proximity. Fluorescence intensity at both 665 nm (acceptor) and 615 nm (donor) are measured and a TR-FRET ratio calculated for each well (acceptor intensity/donor intensity). IC50 values were determined by 4 parameter robust fit of TR-FRET ratio values vs. (Log10) compound concentrations.

T1 sequence (Q06187 whole entry): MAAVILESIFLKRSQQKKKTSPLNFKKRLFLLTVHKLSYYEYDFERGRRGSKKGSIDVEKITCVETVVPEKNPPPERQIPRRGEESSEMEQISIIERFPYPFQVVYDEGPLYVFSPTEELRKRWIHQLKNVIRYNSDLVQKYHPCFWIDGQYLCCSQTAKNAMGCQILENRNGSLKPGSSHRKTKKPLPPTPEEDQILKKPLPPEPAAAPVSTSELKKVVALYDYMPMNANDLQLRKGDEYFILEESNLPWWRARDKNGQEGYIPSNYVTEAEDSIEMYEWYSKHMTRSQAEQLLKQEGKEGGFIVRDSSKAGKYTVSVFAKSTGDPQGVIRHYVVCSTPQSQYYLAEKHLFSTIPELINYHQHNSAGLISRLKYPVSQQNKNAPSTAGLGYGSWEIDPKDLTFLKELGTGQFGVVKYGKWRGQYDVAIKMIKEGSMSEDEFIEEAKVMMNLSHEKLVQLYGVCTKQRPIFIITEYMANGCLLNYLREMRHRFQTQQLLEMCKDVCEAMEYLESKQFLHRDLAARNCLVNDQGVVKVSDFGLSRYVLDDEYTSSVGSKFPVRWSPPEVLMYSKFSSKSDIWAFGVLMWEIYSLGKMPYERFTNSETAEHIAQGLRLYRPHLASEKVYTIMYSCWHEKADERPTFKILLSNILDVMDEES

Row | IC50 [1] | IC50 [2] | Compound
1 | 7.2 nM |  | Cn1ncc2c1CCCC2(O)c1nc(-c2ccc(C(=O)Nc3cc(C(F)(F)F)ccn3)cc2)c2c(N)nccn12 (centres unmarked) [Example 1, 4-(8-amino-3-(4-hydroxy-1-methyl-4,5,6,7-tetrahydro-1H-indazol-4-yl)imidazo[1,5-a]pyrazin-1-yl)-N-(4-(trifluoromethyl)pyridin-2-yl)benzamide]
2 |  | 0.45 nM | Nc1ncnc2c1c(-c1ccc(C(=O)Nc3cc(C(F)(F)F)ccn3)cc1)nn2[C@@H]1CCCc2nn(CCO)cc21 [Example 16, (R)-4-(4-amino-1-(2-(2-hydroxyethyl)-4,5,6,7-tetrahydro-2H-indazol-4-yl)-1H-pyrazolo[3,4-d]pyrimidin-3-yl)-N-(4-(trifluoromethyl)pyridin-2-yl)benzamide]
3 | 12 nM |  | CCn1ncc2c1CCCC2(O)c1nc(-c2ccc(C(=O)Nc3cc(C(F)(F)F)ccn3)cc2)c2c(N)nccn12 (centres unmarked) [Example 4, 4-(8-amino-3-(1-ethyl-4-hydroxy-4,5,6,7-tetrahydro-1H-indazol-4-yl)imidazo[1,5-a]pyrazin-1-yl)-N-(4-(trifluoromethyl)pyridin-2-yl)benzamide]
4 |  | 0.33 nM | Cn1ncc2c1CCC[C@@]2(O)c1nc(-c2ccc(C(=O)Nc3cc(C(F)(F)F)ccn3)cc2)c2c(N)nccn12 [Example 2, (S)-4-(8-amino-3-(4-hydroxy-1-methyl-4,5,6,7-tetrahydro-1H-indazol-4-yl)imidazo[1,5-a]pyrazin-1-yl)-N-(4-(trifluoromethyl)pyridin-2-yl)benzamide]
5 |  | 11 nM | Nc1nccn2c([C@@H]3CCn4c(nnc4C(F)(F)F)C3)nc(-c3ccc(C(=O)Nc4cc(C(F)(F)F)ccn4)cc3)c12 [Example 22, (R)-4-(8-amino-3-(3-(trifluoromethyl)-5,6,7,8-tetrahydro-[1,2,4]triazolo[4,3-a]pyridin-7-yl)imidazo[1,5-a]pyrazin-1-yl)-N-(4-(trifluoromethyl)pyridin-2-yl)benzamide]

Reference: US9446130B2, “BTK inhibitors” (MERCK SHARP & DOHME CORP., priority 2013, dated 2016)
